In patent EP3820512B1, “IMMUNOMODULATING COMPOSITIONS COMPRISING OLIGOSACCHARIDE DERIVATIVES” (priority 2018, dated 2020):

What was measured:
[1] = system: THP-1 (human monocytic) cells; assay: Cytokine response (IL-1β, TNF-α, IL-10) of THP-1 cells treated with compounds; type: cell-based; details: 100-200 µM
Procedure: When THP-1 (human monocytic) cells were treated with 100-200 µM of compounds 8, 14, 17, 23, 29, and 32, they produced an increased IL-1β and TNF-α response, decreased anti-inflammatory cytokine IL-10 (FIG. 4).

TLR4 = TLR4 (Homo sapiens, UniProt O00206); assay: TLR4 inhibitory and activating activity in THP-1 cells at low and high concentrations; type: cell-based; parameters: endogenous in cells; host or cells: THP-1 (human monocytic) cells; details: for % inhibition over control TLR4 / % activation over control TLR4: THP-1 cells; for TLR2/4 antagonist activity: as shown in Table-1 (FIG. 1), TLR2 and TLR4
TLR2 = target: T1, TLR2 (Homo sapiens, UniProt O60603); assay: TLR2 activity in PMA-stimulated THP-1 monocyte cells, ELISA of cell lysate; type: cell-based; details: THP-1 cells
T1 construct: endogenous in cells; host or cells: THP-1 monocyte cells stimulated with PMA
Procedure: THP-1 monocyte cells (1×10^5) were stimulated with 200nM of PMA for 48h and treated with different concentrations of test compounds. The TLR2 activity was measured after 24 h from the cell lysate using ELISA.

hPBMC = assay: Cytotoxicity in hPBMC, MTT cell proliferation kit; type: cell-based, human; details: 0.1, 1.0, 10, 100 and 1000 µM, 24h
Procedure: The cells were treated with compounds and incubated for 24h. Cell viability was assessed using MTT cell proliferation kit (Promega).

HUVECs = assay: Cytotoxicity in HUVECs, MTT cell proliferation kit; type: cell-based, human; details: 100 µM, 24h
Procedure: Selected TLR2/4 antagonist compounds 2, 6, 7, 8, 14, 17 and 32 were evaluated for cytotoxicity in HUVECs at 100 µM concentration. The cells were treated with compounds and incubated for 24h. Cell viability was assessed using MTT cell proliferation kit (Promega). All the compounds were not toxic to HUVECs (FIG. 15).

[2] = system: VEGF induced tube formation in HUVECs; assay: Anti-angiogenic activity, Tube Formation kit, VEGF induced; type: cell-based, human; details: VEGF 100ng/mL
Procedure: Selected TLR2/4 antagonist compounds 2, 6, 7, 8, 14, 17 and 32 were evaluated for anti-angiogenic activity using the Tube Formation kit (Cat#3470-096-K). VEGF (100ng/mL) was used as positive control. These compounds have potential applications in diseases associated with pathological angiogenesis such as solid tumor, […], diabetic retinopathy as well as AMD.

[3] = system: hyperoxia induced BPD in mouse pups; assay: Hyperoxia-exposed BPD mouse model (newborn pups); type: in vivo
From the text: Neonatal mice and humans undergo similar stages of lung development but differ with respect to the duration of each stage and its temporal relationship to gestational age. The lungs of the mouse born at term are in the saccular stage and are surfactant sufficient; this can be considered somewhat akin to a human preterm neonate in the same stage of lung development that has been exposed to a full complement of antenatal steroids (which is known to enhance surfactant production). In terms of mimicking the human condition, the most successful hyperoxia models are those that limit exposure to hyperoxia to the saccular stage of pulmonary development. The mouse BPD model involves exposing newborn mice (postnatal day 1 or PN1) to 100% oxygen till PN4 followed by recovery in room air (RA) for another 10 days.
After the recovery period, their lungs were harvested and processed for quantitative PCR, western blotting, histopathology and ELISA.
After the recovery period, their lungs were harvested and processed for quantitative PCR, western blotting and histopathology and ELISA.
BPD is characterized by large simplified alveoli, inflammation, increased cell death, decreased cell proliferation, dysmorphic capillary configuration, and variable interstitial cellularity and/or fibroproliferation. […] This is determined by measuring the alveolar chord length, septal thickness and radial alveolar count (RAC). In BPD, the alveolar area increases which is characterized by increase in the diameter of the alveolar sacs, the septa become thickened (thus interfering in gaseous exchange) and the RAC, a parameter used to assess the complexity of terminal respiratory unit by pulmonologists, decreases as a result of arrested lung development.

T1 sequence (O60603 21-784): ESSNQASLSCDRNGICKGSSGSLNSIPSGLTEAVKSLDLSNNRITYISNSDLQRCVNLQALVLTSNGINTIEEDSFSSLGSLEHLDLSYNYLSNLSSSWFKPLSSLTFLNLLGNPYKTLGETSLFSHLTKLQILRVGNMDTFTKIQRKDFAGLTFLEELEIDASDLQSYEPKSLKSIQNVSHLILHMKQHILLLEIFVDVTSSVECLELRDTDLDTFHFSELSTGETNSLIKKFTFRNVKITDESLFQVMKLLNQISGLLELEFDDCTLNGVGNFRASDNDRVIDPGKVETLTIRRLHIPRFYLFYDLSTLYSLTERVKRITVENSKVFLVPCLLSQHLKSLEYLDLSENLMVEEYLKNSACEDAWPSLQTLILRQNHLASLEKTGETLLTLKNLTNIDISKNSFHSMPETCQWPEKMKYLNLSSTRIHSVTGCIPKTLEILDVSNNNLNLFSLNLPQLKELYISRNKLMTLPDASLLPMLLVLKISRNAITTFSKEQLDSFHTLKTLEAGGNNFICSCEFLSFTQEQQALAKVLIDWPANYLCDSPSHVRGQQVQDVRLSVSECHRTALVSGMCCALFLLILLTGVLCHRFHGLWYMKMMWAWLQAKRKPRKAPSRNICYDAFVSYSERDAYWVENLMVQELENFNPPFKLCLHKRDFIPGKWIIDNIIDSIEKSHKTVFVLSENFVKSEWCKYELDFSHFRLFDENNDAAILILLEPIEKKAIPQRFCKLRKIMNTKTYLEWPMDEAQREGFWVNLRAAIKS
Chain of TLR4 (O00206 24-839): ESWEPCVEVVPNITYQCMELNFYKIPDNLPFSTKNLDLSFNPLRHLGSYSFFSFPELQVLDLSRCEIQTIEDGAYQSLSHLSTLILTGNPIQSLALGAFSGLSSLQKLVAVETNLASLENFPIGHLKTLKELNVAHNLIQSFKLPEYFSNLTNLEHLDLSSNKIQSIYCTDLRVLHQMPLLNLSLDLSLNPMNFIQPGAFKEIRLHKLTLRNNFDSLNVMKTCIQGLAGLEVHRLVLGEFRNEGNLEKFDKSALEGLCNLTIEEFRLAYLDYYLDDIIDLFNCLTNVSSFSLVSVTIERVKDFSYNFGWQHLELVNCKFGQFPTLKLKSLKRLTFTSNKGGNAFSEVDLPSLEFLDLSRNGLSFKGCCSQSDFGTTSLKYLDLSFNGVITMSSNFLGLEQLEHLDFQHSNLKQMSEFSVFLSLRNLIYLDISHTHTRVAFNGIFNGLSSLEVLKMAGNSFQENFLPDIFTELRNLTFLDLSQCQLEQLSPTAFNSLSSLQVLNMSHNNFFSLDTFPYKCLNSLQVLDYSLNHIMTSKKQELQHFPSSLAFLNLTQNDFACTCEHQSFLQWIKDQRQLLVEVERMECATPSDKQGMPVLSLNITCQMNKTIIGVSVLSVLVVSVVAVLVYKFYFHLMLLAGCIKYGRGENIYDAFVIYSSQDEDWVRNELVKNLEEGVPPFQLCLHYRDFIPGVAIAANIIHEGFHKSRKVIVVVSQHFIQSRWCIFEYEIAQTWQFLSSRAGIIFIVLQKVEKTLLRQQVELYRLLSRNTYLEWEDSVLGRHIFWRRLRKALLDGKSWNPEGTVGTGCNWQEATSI
Chain of TLR4 (Q9Y6Y9 17-160 partner limits assumed): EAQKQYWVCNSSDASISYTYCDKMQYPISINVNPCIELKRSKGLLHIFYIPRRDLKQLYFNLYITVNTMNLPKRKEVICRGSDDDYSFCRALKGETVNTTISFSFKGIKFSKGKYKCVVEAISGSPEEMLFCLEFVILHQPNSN

## CC(=O)NC1[C@H](Oc2cccc3sc(NC(=O)C(C)(C)C)nc23)O[C@H](CO)[C@@H](O)[C@@H]1O (single isomer, unassigned) [Compound 23]
[1]
  IL-1β response: increased
  TNF-α response: increased
  anti-inflammatory cytokine IL-10: decreased
TLR4; Concentration 1-10 µM
  % inhibition over control TLR4: + (+ means that the % of inhibition or activation is in the range of 15-25%)
TLR4; Concentration 75-100 µM
  % inhibition over control TLR4: + (+ means that the % of inhibition or activation is in the range of 15-25%)

## CC(=O)NC1[C@H](Oc2ccc(N3CCN(C(C)=O)CC3)cc2)O[C@H](CO)[C@@H](O)[C@@H]1O (single isomer, unassigned) [Compound 28]
TLR4; Concentration 1-10 µM
  % inhibition over control TLR4: + (+ means that the % of inhibition or activation is in the range of 15-25%)
TLR4; Concentration 75-100 µM
  % activation over control TLR4: ++ (++ means that the % of inhibition or activation is in the range of 25-75%)

## CC(=O)NC1[C@H](Oc2ccc(B(O)O)cc2)O[C@H](CO)[C@@H](O)[C@@H]1O (single isomer, unassigned) [Compound 35, p-Boronic acid phenyl 2-acetamido-2-deoxy-β-D-glucopyranoside]
TLR4; Concentration 1-10 µM
  % inhibition over control TLR4: +++ (+++ means that the % of inhibition or activation is in the range of 75-95%)
TLR4; Concentration 75-100 µM
  % activation over control TLR4: ++ (++ means that the % of inhibition or activation is in the range of 25-75%)
TLR4; summary in words
  TLR4 modulatory activity: concentration dependent TLR4 modulatory activity
  TLR2/4 antagonist activity: potent TLR2/4 antagonists

## CC(=O)N[C@@H]1[C@@H](OC(C)=O)[C@H](OC(C)=O)[C@@H](COC(C)=O)O[C@H]1NC(=O)c1ccc(O[C@@H]2O[C@H](CO)[C@@H](O)[C@H](O)[C@H]2NC(C)=O)cc1 [Compound 2]
TLR2; Concentration 1-10 µM
  % inhibition over control TLR2: + (+ means that the % of inhibition or activation is in the range of 15-25%)
TLR2; Concentration 75-100 µM
  % inhibition over control TLR2: +++ (+++ means that the % of inhibition or activation is in the range of 75-95%)
hPBMC
  cytotoxicity in hPBMC (cell viability): not toxic
HUVECs
  cytotoxicity in HUVECs (cell viability): not toxic
[2]
  VEGF induced tube formation: significantly decreased
TLR4; Concentration 1-10 µM
  % inhibition over control TLR4: ++ (++ means that the % of inhibition or activation is in the range of 25-75%)
TLR4; Concentration 75-100 µM
  % inhibition over control TLR4: +++ (+++ means that the % of inhibition or activation is in the range of 75-95%)
TLR4; summary in words
  TLR2/4 antagonist activity: potent TLR2/4 antagonists

## CC(=O)N[C@@H]1[C@@H](O)[C@H](O)[C@@H](CO)O[C@H]1NC(=O)c1ccc(O[C@@H]2O[C@H](CO)[C@@H](O)[C@H](O)[C@H]2NC(C)=O)cc1 [Compound 3]
TLR2; Concentration 1-10 µM
  % inhibition over control TLR2: ++ (++ means that the % of inhibition or activation is in the range of 25-75%)
TLR2; Concentration 75-100 µM
  % inhibition over control TLR2: +++ (+++ means that the % of inhibition or activation is in the range of 75-95%)
[3]; neonatal pups with BPD
  TLR4 inhibition in vivo: inhibit
[3]; saline (IV) and nanosuspension (IN) formulation
  lung architecture: restored
TLR4; Concentration 1-10 µM
  % inhibition over control TLR4: ++ (++ means that the % of inhibition or activation is in the range of 25-75%)
TLR4; Concentration 75-100 µM
  % inhibition over control TLR4: +++ (+++ means that the % of inhibition or activation is in the range of 75-95%)
TLR4; summary in words
  TLR2/4 antagonist activity: potent TLR2/4 antagonists

## CC(=O)N[C@H]1[C@H](Oc2ccc(C(=O)Nc3ccc(O[C@@H]4O[C@H](COC(C)=O)[C@@H](OC(C)=O)[C@H](OC(C)=O)[C@H]4NC(C)=O)cc3)cc2)O[C@H](CO)[C@@H](O)[C@@H]1O [Compound 6]
HUVECs
  cytotoxicity in HUVECs (cell viability): not toxic
[2]
  VEGF induced tube formation: significantly decreased
TLR4; Concentration 1-10 µM
  % inhibition over control TLR4: ++ (++ means that the % of inhibition or activation is in the range of 25-75%)
TLR4; Concentration 75-100 µM
  % inhibition over control TLR4: +++ (+++ means that the % of inhibition or activation is in the range of 75-95%)
TLR4; summary in words
  TLR2/4 antagonist activity: potent TLR2/4 antagonists

## CC(=O)N[C@H]1[C@H](Oc2ccc(NC(=O)c3ccc(O[C@@H]4O[C@H](CO)[C@@H](O)[C@H](O)[C@H]4NC(C)=O)cc3)cc2)O[C@H](CO)[C@@H](O)[C@@H]1O [Compound 7]
TLR2; Concentration 1-10 µM
  % inhibition over control TLR2: ++ (++ means that the % of inhibition or activation is in the range of 25-75%)
TLR2; Concentration 75-100 µM
  % inhibition over control TLR2: +++ (+++ means that the % of inhibition or activation is in the range of 75-95%)
hPBMC
  cytotoxicity in hPBMC (cell viability): not toxic
HUVECs
  cytotoxicity in HUVECs (cell viability): not toxic
[2]
  VEGF induced tube formation: significantly decreased
TLR4; Concentration 1-10 µM
  % inhibition over control TLR4: +++ (+++ means that the % of inhibition or activation is in the range of 75-95%)
TLR4; Concentration 75-100 µM
  % inhibition over control TLR4: +++ (+++ means that the % of inhibition or activation is in the range of 75-95%)
TLR4; summary in words
  TLR2/4 antagonist activity: potent TLR2/4 antagonists

## CC(=O)N[C@H]1[C@H](Oc2ccc([N+](=O)[O-])cc2Cl)O[C@H](CO)[C@@H](O)[C@@H]1O [Compound 11]
TLR4; Concentration 1-10 µM
  % inhibition over control TLR4: + (+ means that the % of inhibition or activation is in the range of 15-25%)
TLR4; Concentration 75-100 µM
  % inhibition over control TLR4: + (+ means that the % of inhibition or activation is in the range of 15-25%)

## CC(=O)N[C@H]1[C@H](Oc2ccc(C#N)cc2)O[C@H](CO)[C@@H](O)[C@@H]1O [Compound 14, p-Cyanophenyl 2-acetamido-2-deoxy-β-D-glucopyranoside]
[1]
  IL-1β response: increased
  TNF-α response: increased
  anti-inflammatory cytokine IL-10: decreased
hPBMC
  cytotoxicity in hPBMC (cell viability): not toxic
HUVECs
  cytotoxicity in HUVECs (cell viability): not toxic
[2]
  VEGF induced tube formation: significantly decreased
TLR4; Concentration 1 µM
  % inhibition over control TLR4: +++ (+++ means that the % of inhibition or activation is in the range of 75-95%)
TLR4; Concentration 100 µM
  % inhibition over control TLR4: +++ (+++ means that the % of inhibition or activation is in the range of 75-95%)
TLR4; summary in words
  TLR2/4 antagonist activity: potent TLR2/4 antagonists

## CC(=O)N[C@H]1[C@H](Oc2ccc3c(C)cc(=O)oc3c2)O[C@H](COS(=O)(=O)O)[C@@H](O)[C@@H]1O [Compound 30]
TLR4; Concentration 1-10 µM
  % activation over control TLR4: + (+ means that the % of inhibition or activation is in the range of 15-25%)
  % inhibition over control TLR4: + (+ means that the % of inhibition or activation is in the range of 15-25%)
TLR4; Concentration 75-100 µM
  % activation over control TLR4: + (+ means that the % of inhibition or activation is in the range of 15-25%)

## COc1ccc(O[C@@H]2O[C@H](CO)[C@@H](O)[C@H](O)[C@H]2NC(C)=O)cc1 [Compound 38]
TLR2; Concentration 75-100 µM
  % inhibition over control TLR2: ++ (++ means that the % of inhibition or activation is in the range of 25-75%)
